The test system of one assay is A2780 cells. Kind of assay: In-vitro cell proliferation assay (SRB), A2780 cells. The note with it: Homo sapiens, A2780, 72 h, A2780 cells, 72 hours, read-out: A2780 IC50. The assay is classed as cell-based. The method, boiled down:
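Read-out is SRB absorbance at 570 nm on TCA-fixed cells after 72 hours of compound treatment at 37° C. in 5% CO2. Background from a media-only plate is subtracted, and % inhibition is interpolated between two tested concentrations.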

For the next assay, the target named is T1, NAMPT (Homo sapiens, UniProt P43490).
T1 construct: His tag; host or cells: E. coli
Kind of assay: Biochemical inhibition assay: NAMPT enzymatic reaction, NMN quantified by mass spectrometry. The settings on record: NAMPT enzymatic reaction; read-out: Biochem IC50. A digest of the protocol:
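Inhibition of E. coli-expressed His-tagged human NAMPT, measured as NMN formation by mass spectrometry after a 30 min room-temperature reaction containing 1 μM NAM, 100 μM PRPP and 2.5 mM ATP.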

Molecules are shown by their SMILES. pIC50: −log10 of the molar value. Read-outs that look alike come from different tables or passages of the source. Where only a bound is given, the exact number is not on record here.

T1 sequence (P43490 whole entry): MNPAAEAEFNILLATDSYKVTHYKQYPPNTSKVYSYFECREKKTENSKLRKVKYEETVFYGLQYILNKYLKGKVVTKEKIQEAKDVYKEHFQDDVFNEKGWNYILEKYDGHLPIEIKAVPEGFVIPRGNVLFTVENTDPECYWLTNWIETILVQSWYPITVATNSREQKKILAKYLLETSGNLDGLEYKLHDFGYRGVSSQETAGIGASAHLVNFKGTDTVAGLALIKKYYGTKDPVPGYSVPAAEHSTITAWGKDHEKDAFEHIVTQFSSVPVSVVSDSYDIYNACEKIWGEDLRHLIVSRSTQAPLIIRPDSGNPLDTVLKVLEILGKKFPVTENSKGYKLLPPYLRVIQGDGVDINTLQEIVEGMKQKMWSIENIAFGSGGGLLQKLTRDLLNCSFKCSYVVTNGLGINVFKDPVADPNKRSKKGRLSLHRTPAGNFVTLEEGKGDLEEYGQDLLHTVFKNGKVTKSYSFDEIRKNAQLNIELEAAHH

Take `Cc1cccc(S(=O)(=O)c2ccc(CNC(=O)c3cc4ccncc4o3)cc2)c1F` [N-({4-[(2-fluoro-3-methylbenzene)sulfonyl]phenyl}methyl)furo[2,3-c]pyridine-2-carboxamide]: the results for the negative-log IC50 (pIC50) in the assay with A2780 cells (SRB) and at NAMPT were 8.10 and 8.20, respectively.

Regarding `COc1ccc(S(=O)(=O)c2ccc(CNC(=O)c3ccc4nccn4c3)cc2)c(F)c1` [N-({4-[(2-fluoro-4-methoxybenzene)sulfonyl]phenyl}methyl)imidazo[1,2-a]pyridine-6-carboxamide], the pIC50 (as a rule, the negative decadic logarithm of the IC50, by convention in mol/L) was 7.64 in the assay on A2780 cells (SRB) and 7.38 on NAMPT.

As for `Cc1ccc(S(=O)(=O)c2ccc(CNC(=O)c3cc4cnccc4[nH]3)cc2)c(F)c1` [N-({4-[(2-fluoro-4-methylbenzene)sulfonyl]phenyl}methyl)-1H-pyrrolo[3,2-c]pyridine-2-carboxamide], the pIC50 with A2780 cells (SRB assay) was 7.68; at NAMPT it was 7.96.

Turning to `Cc1ccc(S(=O)(=O)c2ccc(CNC(=O)c3ccc4nccn4c3)cc2)c(F)c1` [N-({4-[(2-fluoro-4-methylbenzene)sulfonyl]phenyl}methyl)imidazo[1,2-a]pyridine-6-carboxamide], the pIC50 in the assay with A2780 cells (SRB) is 7.61; on NAMPT, 7.67.

`Cc1ccc(S(=O)(=O)c2ccc(CNC(=O)c3cc4ccncc4s3)cc2)c(F)c1` [N-({4-[(2-fluoro-4-methylbenzene)sulfonyl]phenyl}methyl)thieno[2,3-c]pyridine-2-carboxamide]: the pIC50 with A2780 cells (SRB assay) is 7.68; at NAMPT it was 8.10.

Consider `COc1ccc(F)c(S(=O)(=O)c2ccc(CNC(=O)c3cnc4[nH]ncc4c3)cc2)c1` [N-({4-[(2-fluoro-5-methoxybenzene)sulfonyl]phenyl}methyl)-1H-pyrazolo[3,4-b]pyridine-5-carboxamide], for which the figures for the pIC50 with A2780 cells (SRB) and on NAMPT were 6.00 to 7.00 and 6.86, respectively.

With `Cc1ccc(F)c(S(=O)(=O)c2ccc(CNC(=O)c3cc4cnccc4[nH]3)cc2)c1` [N-({4-[(2-fluoro-5-methylbenzene)sulfonyl]phenyl}methyl)-1H-pyrrolo[3,2-c]pyridine-2-carboxamide], the figures for the pIC50 with A2780 cells (SRB assay) and on NAMPT were 7.62 and 7.60, respectively.

Take `COc1cccc(F)c1S(=O)(=O)c1ccc(CNC(=O)c2ccc3nccn3c2)cc1` [N-({4-[(2-fluoro-6-methoxybenzene)sulfonyl]phenyl}methyl)imidazo[1,2-a]pyridine-6-carboxamide]: the pIC50 with A2780 cells (SRB) was 7.58; at NAMPT it was 7.32.

For `O=C(NCc1ccc(S(=O)(=O)c2ccccc2F)cc1)c1cc2ccncc2o1` [N-({4-[(2-fluorobenzene)sulfonyl]phenyl}methyl)furo[2,3-c]pyridine-2-carboxamide], the pIC50 in the assay on A2780 cells (SRB) was 6.00 to 7.00; on NAMPT it was 7.38.

`CS(=O)(=O)Nc1ccccc1S(=O)(=O)c1ccc(CNC(=O)c2cc3cnccc3[nH]2)cc1` [N-({4-[(2-methanesulfonamidobenzene)sulfonyl]phenyl}methyl)-1H-pyrrolo[3,2-c]pyridine-2-carboxamide]: the negative logarithm of the IC50 (pIC50) in the assay on A2780 cells (SRB assay) was under 6.00; at NAMPT it was 6.55.

In the case of `COc1ccc(C)cc1S(=O)(=O)c1ccc(CNC(=O)c2cnc3[nH]ncc3c2)cc1` [N-({4-[(2-methoxy-5-methylbenzene)sulfonyl]phenyl}methyl)-1H-pyrazolo[3,4-b]pyridine-5-carboxamide], the figures for the pIC50 with A2780 cells (SRB) and on NAMPT were 7.61 and 7.25, respectively.

As to `COc1ccc(C)cc1S(=O)(=O)c1ccc(CNC(=O)c2cc3cnccc3[nH]2)cc1` [N-({4-[(2-methoxy-5-methylbenzene)sulfonyl]phenyl}methyl)-1H-pyrrolo[3,2-c]pyridine-2-carboxamide], the pIC50 with A2780 cells (SRB assay) is 8.52; at NAMPT, 7.92.

Consider `COc1ccc(C)cc1S(=O)(=O)c1ccc(CNC(=O)c2ccc3nccn3c2)cc1` [N-({4-[(2-methoxy-5-methylbenzene)sulfonyl]phenyl}methyl)imidazo[1,2-a]pyridine-6-carboxamide], for which the negative-log IC50 (pIC50) with A2780 cells (SRB) was 7.93; on NAMPT, 7.37.

For `COc1ccc(C)cc1S(=O)(=O)c1ccc(CNC(=O)c2cc3ccncc3s2)cc1` [N-({4-[(2-methoxy-5-methylbenzene)sulfonyl]phenyl}methyl)thieno[2,3-c]pyridine-2-carboxamide], the results for the negative logarithm of the IC50 (pIC50) with A2780 cells (SRB assay) and at NAMPT were 8.60 and 8.22, respectively.

For `COc1cccc(C)c1NS(=O)(=O)c1ccc(CNC(=O)c2cc3cnccc3[nH]2)cc1` [N-({4-[(2-methoxy-6-methylphenyl)sulfamoyl]phenyl}methyl)-1H-pyrrolo[3,2-c]pyridine-2-carboxamide], the pIC50 is 4.91 in the assay with A2780 cells (SRB assay) and 8.22 on NAMPT.

With `COc1ccccc1S(=O)(=O)c1ccc(CNC(=O)c2cnc3[nH]ncc3c2)cc1` [N-({4-[(2-methoxybenzene)sulfonyl]phenyl}methyl)-1H-pyrazolo[3,4-b]pyridine-5-carboxamide], the results for the negative-log IC50 (pIC50) with A2780 cells (SRB) and at NAMPT were 7.21 and 7.17, respectively.

Turning to `COc1ccccc1S(=O)(=O)c1ccc(CNC(=O)c2cc3cnccc3[nH]2)cc1` [N-({4-[(2-methoxybenzene)sulfonyl]phenyl}methyl)-1H-pyrrolo[3,2-c]pyridine-2-carboxamide], the pIC50 in the assay with A2780 cells (SRB assay) was 8.15; on NAMPT it was 8.05.

Take `COc1ccccc1S(=O)(=O)c1ccc(CNC(=O)c2cc3ccncc3o2)cc1` [N-({4-[(2-methoxybenzene)sulfonyl]phenyl}methyl)furo[2,3-c]pyridine-2-carboxamide]: the negative logarithm of the IC50 (pIC50) with A2780 cells (SRB) is 7.58; at NAMPT, 7.72.

For the compound `COc1ccccc1S(=O)(=O)c1ccc(CNC(=O)c2ccc3nccn3c2)cc1` [N-({4-[(2-methoxybenzene)sulfonyl]phenyl}methyl)imidazo[1,2-a]pyridine-6-carboxamide], the negative-log IC50 (pIC50) in the assay on A2780 cells (SRB) was 7.82; at NAMPT, 7.58.

With `COc1ccccc1S(=O)(=O)c1ccc(CNC(=O)c2cnc3nccn3c2)cc1` [N-({4-[(2-methoxybenzene)sulfonyl]phenyl}methyl)imidazo[1,2-a]pyrimidine-6-carboxamide], the pIC50 in the assay with A2780 cells (SRB) was 7.13; on NAMPT, 8.41.

In the case of `COc1ccccc1S(=O)(=O)c1ccc(CNC(=O)c2cc3ccncc3s2)cc1` [N-({4-[(2-methoxybenzene)sulfonyl]phenyl}methyl)thieno[2,3-c]pyridine-2-carboxamide], the pIC50 is 8.28 with A2780 cells (SRB assay) and 8.15 on NAMPT.

For the compound `COc1ccccc1NS(=O)(=O)c1ccc(CNC(=O)c2cc3cnccc3[nH]2)cc1` [N-({4-[(2-methoxyphenyl)sulfamoyl]phenyl}methyl)-1H-pyrrolo[3,2-c]pyridine-2-carboxamide], the pIC50 in the assay with A2780 cells (SRB assay) is 5.67; on NAMPT, 7.05.

`CCCOc1ccc(S(=O)(=O)c2ccc(CNC(=O)c3cc4ccncc4s3)cc2)c(C)c1` [N-({4-[(2-methyl-4-propoxybenzene)sulfonyl]phenyl}methyl)thieno[2,3-c]pyridine-2-carboxamide]: the values for the pIC50 with A2780 cells (SRB) and at NAMPT were 8.77 and 7.89, respectively.

For the compound `Cc1ccccc1S(=O)(=O)c1ccc(CNC(=O)c2cnc3[nH]ncc3c2)cc1` [N-({4-[(2-methylbenzene)sulfonyl]phenyl}methyl)-1H-pyrazolo[3,4-b]pyridine-5-carboxamide], the pIC50 with A2780 cells (SRB) is 6.00 to 7.00; at NAMPT, 7.03.

On to `Cc1ccccc1S(=O)(=O)c1ccc(CNC(=O)c2cc3cnccc3[nH]2)cc1` [N-({4-[(2-methylbenzene)sulfonyl]phenyl}methyl)-1H-pyrrolo[3,2-c]pyridine-2-carboxamide], for which the values for the negative-log IC50 (pIC50) in the assay on A2780 cells (SRB assay) and on NAMPT were 7.89 and 7.85, respectively.

In the case of `Cc1ccccc1S(=O)(=O)c1ccc(CNC(=O)c2cc3ccncc3o2)cc1` [N-({4-[(2-methylbenzene)sulfonyl]phenyl}methyl)furo[2,3-c]pyridine-2-carboxamide], the results for the pIC50 with A2780 cells (SRB) and on NAMPT were 7.36 and 7.82, respectively.

Regarding `Cc1ccccc1S(=O)(=O)c1ccc(CNC(=O)c2ccc3nccn3c2)cc1` [N-({4-[(2-methylbenzene)sulfonyl]phenyl}methyl)imidazo[1,2-a]pyridine-6-carboxamide], the pIC50 in the assay on A2780 cells (SRB) is 7.04; at NAMPT, 7.17.

As for `Cc1ccccc1S(=O)(=O)c1ccc(CNC(=O)c2cc3ccncc3s2)cc1` [N-({4-[(2-methylbenzene)sulfonyl]phenyl}methyl)thieno[2,3-c]pyridine-2-carboxamide], the pIC50 in the assay with A2780 cells (SRB assay) is 7.65; at NAMPT it was 8.00.

For the compound `O=C(NCc1ccc(S(=O)(=O)c2ccccc2Oc2ccccc2)cc1)c1cnc2[nH]ncc2c1` [N-({4-[(2-phenoxybenzene)sulfonyl]phenyl}methyl)-1H-pyrazolo[3,4-b]pyridine-5-carboxamide], the negative-log IC50 (pIC50) with A2780 cells (SRB) and at NAMPT was 6.00 to 7.00 in each case.

Consider `O=C(NCc1ccc(S(=O)(=O)c2ccccc2Oc2ccccc2)cc1)c1cc2cnccc2[nH]1` [N-({4-[(2-phenoxybenzene)sulfonyl]phenyl}methyl)-1H-pyrrolo[3,2-c]pyridine-2-carboxamide], for which the pIC50 in the assay on A2780 cells (SRB assay) was 8.15; at NAMPT it was 7.96.

For the compound `O=C(NCc1ccc(S(=O)(=O)c2ccccc2Oc2ccccc2)cc1)c1ccc2nccn2c1` [N-({4-[(2-phenoxybenzene)sulfonyl]phenyl}methyl)imidazo[1,2-a]pyridine-6-carboxamide], the pIC50 in the assay with A2780 cells (SRB) was 7.22; on NAMPT it was 7.20.

For `O=C(NCc1ccc(S(=O)(=O)c2ccccc2Oc2ccccc2)cc1)c1cc2ccncc2s1` [N-({4-[(2-phenoxybenzene)sulfonyl]phenyl}methyl)thieno[2,3-c]pyridine-2-carboxamide], the pIC50 with A2780 cells (SRB assay) was 7.16; at NAMPT it was 7.96.

As for `O=C(NCc1ccc(S(=O)(=O)Nc2ccccc2Oc2ccccc2)cc1)c1cc2cnccc2[nH]1` [N-({4-[(2-phenoxyphenyl)sulfamoyl]phenyl}methyl)-1H-pyrrolo[3,2-c]pyridine-2-carboxamide], the values for the pIC50 with A2780 cells (SRB assay) and on NAMPT were 4.92 and 5.40, respectively.

The record behind these values is patent US12336981B2, “Compounds and compositions for the inhibition of NAMPT” (Valo Health, Inc., priority 2010, dated 2025).
